The source made the active and inactive calls. The rule behind the calls is not given here.
Test system: CCRIS mutagenicity, Ames/micronucleus/aberration tests
Assay: CCRIS mutagenicity studies
[1] = Test System: AMES SALMONELLA TYPHIMURIUM, Strain/Indicator: TA98, Metabolic Activation: NONE, Method: PREINCUBATION
[2] = Test System: AMES SALMONELLA TYPHIMURIUM, Strain/Indicator: TA100, Metabolic Activation: NONE, Method: PREINCUBATION
[3] = Test System: AMES SALMONELLA TYPHIMURIUM, Strain/Indicator: TA1535, Metabolic Activation: NONE, Method: PREINCUBATION
[4] = Test System: MOUSE LYMPHOMA, Strain/Indicator: L5178Y (TK+/TK-), Metabolic Activation: NONE, Method: SUSPENSION/PLATE
[5] = Test System: MOUSE LYMPHOMA, Strain/Indicator: L5178Y (TK+/TK-), Metabolic Activation: RAT, LIVER, S-9, AROCLOR 1254, Method: SUSPENSION/PLATE

Structure (SMILES): Cc1ncc[nH]1
- mutagenic call (End Point: IN VIVO MICRONUCLEUS, Test System: BONE MARROW POLYCHROMATIC ERYTHROCYTES, Species: MOUSE, Strain/Sex: B6C3F1/MALE, Route: IP): inactive; negative
- mutagenic call (End Point: IN VIVO MICRONUCLEUS, Test System: BONE MARROW POLYCHROMATIC ERYTHROCYTES, Species: RAT, Strain/Sex: F344/N/MALE, Route: IP): inactive; negative
- mutagenic call (End Point: IN VIVO MICRONUCLEUS, Test System: PERIPHERAL BLOOD NORMOCHROMATIC ERYTHROCYTES, Species: MOUSE, Strain/Sex: B6C3F1/MALE, FEMALE, Route: ORAL (DIET)): active; positive
- mutagenic call (Test System: AMES SALMONELLA TYPHIMURIUM, Strain/Indicator: TA97, Metabolic Activation: HAMSTER, LIVER, S-9, AROCLOR 1254, Method: PREINCUBATION): inactive; negative
- mutagenic call (Test System: AMES SALMONELLA TYPHIMURIUM, Strain/Indicator: TA97, Metabolic Activation: NONE, Method: PREINCUBATION): inactive; negative
- mutagenic call (Test System: AMES SALMONELLA TYPHIMURIUM, Strain/Indicator: TA97, Metabolic Activation: RAT, LIVER, S-9, AROCLOR 1254, Method: PREINCUBATION): inactive; negative
- mutagenic call (Test System: AMES SALMONELLA TYPHIMURIUM, Strain/Indicator: TA98, Metabolic Activation: HAMSTER, LIVER, S-9, AROCLOR 1254 (10%), Method: STANDARD PLATE): inactive; negative
- mutagenic call (Test System: AMES SALMONELLA TYPHIMURIUM, Strain/Indicator: TA98, Metabolic Activation: HAMSTER, LIVER, S-9, AROCLOR 1254, Method: PREINCUBATION): inactive; negative
- mutagenic call [1]: inactive; negative
- mutagenic call (Test System: AMES SALMONELLA TYPHIMURIUM, Strain/Indicator: TA98, Metabolic Activation: NONE, Method: STANDARD PLATE): inactive; negative
- mutagenic call (Test System: AMES SALMONELLA TYPHIMURIUM, Strain/Indicator: TA98, Metabolic Activation: RAT, LIVER, S-9, AROCLOR 1254 (10%), Method: STANDARD PLATE): inactive; negative
- mutagenic call (Test System: AMES SALMONELLA TYPHIMURIUM, Strain/Indicator: TA98, Metabolic Activation: RAT, LIVER, S-9, AROCLOR 1254, Method: PREINCUBATION): inactive; negative
- mutagenic call (Test System: AMES SALMONELLA TYPHIMURIUM, Strain/Indicator: TA100, Metabolic Activation: HAMSTER, LIVER, S-9, AROCLOR 1254 (10%), Method: STANDARD PLATE): inactive; negative
- mutagenic call (Test System: AMES SALMONELLA TYPHIMURIUM, Strain/Indicator: TA100, Metabolic Activation: HAMSTER, LIVER, S-9, AROCLOR 1254, Method: PREINCUBATION): inactive; negative
- mutagenic call [2]: inactive; negative
- mutagenic call (Test System: AMES SALMONELLA TYPHIMURIUM, Strain/Indicator: TA100, Metabolic Activation: NONE, Method: STANDARD PLATE): inactive; negative
- mutagenic call (Test System: AMES SALMONELLA TYPHIMURIUM, Strain/Indicator: TA100, Metabolic Activation: RAT, LIVER, S-9, AROCLOR 1254 (10%), Method: STANDARD PLATE): inactive; negative
- mutagenic call (Test System: AMES SALMONELLA TYPHIMURIUM, Strain/Indicator: TA100, Metabolic Activation: RAT, LIVER, S-9, AROCLOR 1254, Method: PREINCUBATION): inactive; negative
- mutagenic call (Test System: AMES SALMONELLA TYPHIMURIUM, Strain/Indicator: TA1535, Metabolic Activation: HAMSTER, LIVER, S-9, AROCLOR 1254 (10%), Method: STANDARD PLATE): inactive; negative
- mutagenic call (Test System: AMES SALMONELLA TYPHIMURIUM, Strain/Indicator: TA1535, Metabolic Activation: HAMSTER, LIVER, S-9, AROCLOR 1254, Method: PREINCUBATION): inactive; negative
- mutagenic call [3]: inactive; negative
- mutagenic call (Test System: AMES SALMONELLA TYPHIMURIUM, Strain/Indicator: TA1535, Metabolic Activation: NONE, Method: STANDARD PLATE): inactive; negative
- mutagenic call (Test System: AMES SALMONELLA TYPHIMURIUM, Strain/Indicator: TA1535, Metabolic Activation: RAT, LIVER, S-9, AROCLOR 1254 (10%), Method: STANDARD PLATE): inactive; negative
- mutagenic call (Test System: AMES SALMONELLA TYPHIMURIUM, Strain/Indicator: TA1535, Metabolic Activation: RAT, LIVER, S-9, AROCLOR 1254, Method: PREINCUBATION): inactive; negative
- mutagenic call (Test System: AMES SALMONELLA TYPHIMURIUM, Strain/Indicator: TA1537, Metabolic Activation: HAMSTER, LIVER, S-9, AROCLOR 1254 (10%), Method: STANDARD PLATE): inactive; negative
- mutagenic call (Test System: AMES SALMONELLA TYPHIMURIUM, Strain/Indicator: TA1537, Metabolic Activation: NONE, Method: STANDARD PLATE): inactive; negative
- mutagenic call (Test System: AMES SALMONELLA TYPHIMURIUM, Strain/Indicator: TA1537, Metabolic Activation: RAT, LIVER, S-9, AROCLOR 1254 (10%), Method: STANDARD PLATE): inactive; negative
- mutagenic call (Test System: AMES SALMONELLA TYPHIMURIUM, Strain/Indicator: TA1538, Metabolic Activation: HAMSTER, LIVER, S-9, AROCLOR 1254 (10%), Method: STANDARD PLATE): inactive; negative
- mutagenic call (Test System: AMES SALMONELLA TYPHIMURIUM, Strain/Indicator: TA1538, Metabolic Activation: NONE, Method: STANDARD PLATE): inactive; negative
- mutagenic call (Test System: AMES SALMONELLA TYPHIMURIUM, Strain/Indicator: TA1538, Metabolic Activation: RAT, LIVER, S-9, AROCLOR 1254 (10%), Method: STANDARD PLATE): inactive; negative
- mutagenic call [4]: inactive; negative. reevaluation of results: inconclusive
- mutagenic call [5]: inactive; negative. reevaluation of results: inconclusive

Structure (SMILES): C=C1CC(=O)O1
- mutagenic call [1]: inactive; negative
- mutagenic call (Test System: AMES SALMONELLA TYPHIMURIUM, Strain/Indicator: TA98, Metabolic Activation: RAT LIVER S-9, PHENOBARBITAL AND BETA-NAPHTHOFLAVONE, Method: PREINCUBATION): inactive; negative
- mutagenic call [2]: inactive; negative
- mutagenic call (Test System: AMES SALMONELLA TYPHIMURIUM, Strain/Indicator: TA100, Metabolic Activation: RAT LIVER S-9, PHENOBARBITAL AND BETA-NAPHTHOFLAVONE, Method: PREINCUBATION): inactive; negative
- mutagenic call (Test System: AMES SALMONELLA TYPHIMURIUM, Strain/Indicator: TA102, Metabolic Activation: NONE, Method: PREINCUBATION): inactive; negative
- mutagenic call (Test System: AMES SALMONELLA TYPHIMURIUM, Strain/Indicator: TA102, Metabolic Activation: RAT LIVER S-9, PHENOBARBITAL AND BETA-NAPHTHOFLAVONE, Method: PREINCUBATION): inactive; negative
- mutagenic call (Test System: AMES SALMONELLA TYPHIMURIUM, Strain/Indicator: TA104, Metabolic Activation: NONE, Method: PREINCUBATION): inactive; negative
- mutagenic call (Test System: AMES SALMONELLA TYPHIMURIUM, Strain/Indicator: TA104, Metabolic Activation: RAT LIVER S-9, PHENOBARBITAL AND BETA-NAPHTHOFLAVONE, Method: PREINCUBATION): inactive; negative
- mutagenic call [3]: inactive; negative
- mutagenic call (Test System: AMES SALMONELLA TYPHIMURIUM, Strain/Indicator: TA1535, Metabolic Activation: RAT LIVER S-9, PHENOBARBITAL AND BETA-NAPHTHOFLAVONE, Method: PREINCUBATION): inactive; negative
- mutagenic call (Test System: AMES SALMONELLA TYPHIMURIUM, Strain/Indicator: TA1537, Metabolic Activation: NONE, Method: PREINCUBATION): inactive; negative
- mutagenic call (Test System: AMES SALMONELLA TYPHIMURIUM, Strain/Indicator: TA1537, Metabolic Activation: RAT LIVER S-9, PHENOBARBITAL AND BETA-NAPHTHOFLAVONE, Method: PREINCUBATION): inactive; negative
- mutagenic call (Test System: E.COLI, Strain/Indicator: WP2UVRA/PKM101, Metabolic Activation: NONE, Method: PREINCUBATION): inactive; negative
- mutagenic call (Test System: E.COLI, Strain/Indicator: WP2UVRA/PKM101, Metabolic Activation: RAT LIVER S-9, PHENOBARBITAL AND BETA-NAPHTHOFLAVONE, Method: PREINCUBATION): inactive; negative
- mutagenic call (Test System: E.COLI, Strain/Indicator: WP2UVRA, Metabolic Activation: NONE, Method: PREINCUBATION): inactive; negative
- mutagenic call (Test System: E.COLI, Strain/Indicator: WP2UVRA, Metabolic Activation: RAT LIVER S-9, PHENOBARBITAL AND BETA-NAPHTHOFLAVONE, Method: PREINCUBATION): inactive; negative

Structure (SMILES): CCCCN(CO)N=O
- mutagenic call (Test System: CHINESE HAMSTER V-79, Strain/Indicator: V-79/OUABAIN, Metabolic Activation: NONE): active; positive

Structure (SMILES): Cn1ccc2c3c(ccc4ccc(O)cc43)ccc21
- mutagenic call (Test System: AMES SALMONELLA TYPHIMURIUM, Strain/Indicator: TA98, Metabolic Activation: RAT, LIVER, S-9, AROCLOR 1254, Method: STANDARD PLATE): inactive; negative
- mutagenic call (Test System: AMES SALMONELLA TYPHIMURIUM, Strain/Indicator: TA98, Metabolic Activation: RAT, LIVER, S-9, AROCLOR, Method: STANDARD PLATE): active; positive

Structure (SMILES): CC(=O)N(O)CCCCCNC(=O)CCC(=O)N(O)CCCCCNC(=O)CCC(=O)N(O)CCCCCN
- mutagenic call [4]: active; positive. reevaluation of results: positive
- mutagenic call [5]: active; positive. reevaluation of results: positive

— PubChem BioAssay AID1259407 (Chemical Carcinogenesis Research Information System (CCRIS), 2018)
